The values that follow come from article PMC10388794 (Journal of Enzyme Inhibition and Medicinal Chemistry, 2023).

In assay [1] the test system is Aβ1–42-induced cognitive impairment in mice. Put plainly: Morris water maze in Aβ1–42-induced cognitive impairment model. In kind it is in vivo. To be noted: T14-A24 10 mg/kg po, donepezil 15 mg/kg po.
Assay [2] deals with recombinant human AChE (hAChE) (Homo sapiens, UniProt P22303). The experiment in a line: hAChE inhibition assay. The following applies: read-out: hAChE inhibition rate % at 20 µM. In kind it is biochemical.
Sequence of recombinant human AChE (hAChE) (P22303 32-614): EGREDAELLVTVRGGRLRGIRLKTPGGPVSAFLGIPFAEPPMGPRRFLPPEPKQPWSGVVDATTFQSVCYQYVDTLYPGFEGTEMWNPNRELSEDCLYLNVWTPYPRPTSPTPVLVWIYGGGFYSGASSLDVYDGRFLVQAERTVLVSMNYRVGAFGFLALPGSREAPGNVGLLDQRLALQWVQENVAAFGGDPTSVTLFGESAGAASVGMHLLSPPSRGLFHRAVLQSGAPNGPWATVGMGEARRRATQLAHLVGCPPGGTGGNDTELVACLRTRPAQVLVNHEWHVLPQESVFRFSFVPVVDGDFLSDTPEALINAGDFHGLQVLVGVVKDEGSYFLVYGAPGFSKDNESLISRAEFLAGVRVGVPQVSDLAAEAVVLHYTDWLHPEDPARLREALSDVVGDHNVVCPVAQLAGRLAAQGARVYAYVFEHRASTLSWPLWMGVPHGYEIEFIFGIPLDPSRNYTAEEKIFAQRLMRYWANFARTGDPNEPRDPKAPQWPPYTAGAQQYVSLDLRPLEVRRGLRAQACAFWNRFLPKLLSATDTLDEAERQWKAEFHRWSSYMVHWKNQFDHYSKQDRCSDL

For the compound `COc1cc2c(cc1OC)C(=O)C(CC1CCN(Cc3ccccc3)CC1)C2` (centres unmarked) [Donepezil], the “Aβ1–42-induced cognitive dysfunction (Morris water maze)” value in assay [1] was “significantly improved”. By inhibition is commonly meant the percentage by which the read-out fell short of the control. Consider `CCN(C)C(=O)Oc1cccc([C@H](C)N(C)C)c1` [Rivastigmine], for which the inhibition at 20 µM in assay [2] is 16.5 ± 0.8%.
